{"source": "paper PMC11271967", "about": "“An inhibitory mechanism of AasS, an exogenous fatty acid scavenger: Implications for re-sensitization of FAS II antimicrobials” (PLOS Pathogens, 2024)", "key": {"[1]": {"system": "AasS-expressing E. coli ΔbioC strain", "test": "AasS-based bypass of biotin synthesis, bacterial viability on M9 agar", "assay_type": "cell-based, Escherichia coli", "details": "M9 agar with E-C7 as sole carbon source; 0, 50, 100, 500 μM tested", "description": "Fig 4 Integrated evidence for the inhibition of AasS action with E-C7 fatty acid by C10-AMS compound. A. Schematic diagram of AasS-catalyzed ligation of E-C7 with holo-ACP recipient to produce E-C7-ACP. […] A representative photograph of three independent trials was given. C. Relatively-quantitative analysis (for the inhibitory efficacy of C10-AMS on AasS-catalyzed E-C7-ACP production. As for AasS reaction (panel B), unlike the three components that are at constant levels, namely (i) AasS (31.25 nM), (ii) E-C7 (600 μM), and (iii) ACP (3 μg), C10-AMS inhibitor was supplemented at varied ratio in relative to the AasS enzyme (ranging from 0:1, 25:1, 50:1, 100:1, 200:1, 300:1, 400:1, to 500:1). The ImageJ software was applied to measure the relative percentage (%) of E-C7 fatty acylation in each AasS reaction. The resultant graphs were plotted from three independent experiments, in which the output was expressed as means ± SD (standard deviations). D. Schematic diagram for C10-AMS inhibition of AasS-based bypass of biotin requirement by the E. coli ΔbioC biotin auxotroph on the non-permissive condition. […] Log-phase cultures in a series of 10-fold dilution (shown in panel on right hand), were spotted on the x-gal-containing M9 agar plates supplemented with C10-AMS inhibitor at varied levels (0, 50, 100, to 500 μM). The addition of x-gal substrate enabled the occurrence of blue colonies for better photographing, and viable colonies were highlighted with yellow arrows.\nGiven that AasS ligates E-C7 fatty acid with holo-ACP, giving E-C7-ACP, an alternative precursor for bacterial biotin synthesis, plasmid-borne aasS expression in ΔbioC biotin auxotroph strain is assumed to overcome the requirement of the primary BioC step [58, 83]. Apart from its WT, three single mutants of AasS (D411A, R426A, and K432A) were examined in vivo, of which the compromised activity is presumably proportional to the varied viability of the ΔbioC reporter strains on the non-permissive M9 growth condition. To test its inhibitory effect, the C10-AMS inhibitor in a series of dilution was supplemented. […]"}, "AasS(D411A)": {"system": "AasS(D411A)", "test": "Microscale thermophoresis (MST), AasS(D411A) mutant", "assay_type": "binding, Vibrio harveyi", "details": "MST", "procedure": "To validate poor binding of AasS(D411A) to C10 fatty acyl adenylate observed in our ITC assays, the relatively-more sensitive approach of microscale thermophoresis (MST) was additionally applied here as Jerabek-Willemsen et al. described with minor alteration. Using the Protein Labeling Kit (Protein Labeling Kit RED-NHS 2nd Generation, Nano Temper Technology), both the wild-type AasS and its D411A mutant were fluorescently labelled in the MST buffer (150 mM NaCl, 25 mM Tris-HCl, 3 mM MgCl2, 0.05% Tween-20, pH 8.0). The ligand C10-AMP used in MST assays was prepared by an equal mixture of C10 and ATP. In general, an NT.115 Monolith instrument (Nano Temper Technology, Germany) was integrated, of which the routine parameters included a RED/LED (20%) excitation power along with 60% laser power for excitation. Then, the protein samples were siphoned into MST Premium Coated capillaries for the determination of binding affinity at room temperature. The final concentrations of different AasS samples were 40 nM for WT, and 180 nM for D411A, respectively. The mixture of C10/ATP was diluted in a gradient (from 0.15 nM to 5.0 μM). Three independent MST experiments were conducted here. The dissociation constants (Kd) were calculated using the software MO. Affinity Analysis v2.3. Of note, this was largely dependent on the KD model with a 1:1 stoichiometry per binding partner."}, "AasS": {"molecular_target": "AasS (Vibrio harveyi, UniProt Q00IB3)", "sequence (Q00IB3 entry or part of it)": "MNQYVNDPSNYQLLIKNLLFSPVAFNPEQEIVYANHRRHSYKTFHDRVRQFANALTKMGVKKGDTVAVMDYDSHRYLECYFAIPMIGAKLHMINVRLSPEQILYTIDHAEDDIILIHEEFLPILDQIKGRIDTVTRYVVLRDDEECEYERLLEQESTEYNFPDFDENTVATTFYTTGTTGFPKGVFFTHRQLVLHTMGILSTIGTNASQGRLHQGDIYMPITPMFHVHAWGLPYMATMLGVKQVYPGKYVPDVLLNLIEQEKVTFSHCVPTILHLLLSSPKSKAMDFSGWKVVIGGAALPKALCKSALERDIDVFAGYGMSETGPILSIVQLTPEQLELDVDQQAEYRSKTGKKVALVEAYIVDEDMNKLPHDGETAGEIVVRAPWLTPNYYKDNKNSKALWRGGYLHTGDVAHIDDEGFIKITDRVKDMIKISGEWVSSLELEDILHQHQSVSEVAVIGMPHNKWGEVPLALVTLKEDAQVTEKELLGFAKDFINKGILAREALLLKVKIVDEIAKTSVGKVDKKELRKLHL", "test": "Isothermal titration calorimetry (ITC), wild-type AasS", "assay_type": "binding", "details": "AasS ~40 μM saturated with ATP 120 μM", "procedure": "The assays of Isothermal titration calorimetry (ITC) were conducted to address the stoichiometry of AasS binding to its C10-AMS inhibitor and C10-AMP intermediate. Since both malic acid and pimelic acid are not substrates for AasS, the two dicarboxylic acids were assumed as negative controls in our ITC analysis. Using a micro-calorimeter (MicroCal PEAQ-ITC) as recently described for E-C7 with little change, totally 18 titrations (2 μl each at an internal of 2.5 min) proceeded in the cell at room temperature. Prior to the titration, AasS protein (~40 μM) was saturated with its ATP cofactor (120 μM) in the cell, and C10-AMS inhibitor (or C10) was kept at 600 μM in the syringe. The titration buffer was composed of 150 mM NaCl, 25 mM Tris-HCl (pH8.0), 2 mM DTT, and 3 mM MgCl2. One set of site model by the MicroCal PEAQ-ITC software enabled plotting the titration curves. Next, the stoichiometry (N) and dissociation constant (Kd) were calculated. It was given as an average ± standard deviation (SD) from three independent trials."}}}
{"compound": "CCCCCCCCCC(=O)NS(=O)(=O)OC[C@H]1O[C@@H](n2cnc3c(N)ncnc32)[C@H](O)[C@@H]1O", "note": "[C10-AMS]", "values": [{"measurement": "C10-AMS level that markedly impaired AasS-based bypass of biotin synthesis", "setting": "[1]", "result": "over 100 μM"}, {"measurement": "Average (DeltaFNorm), AasS(D411A)", "setting": "AasS(D411A); Dose 1.52588e-10", "result": 4.014}, {"measurement": "Average (DeltaFNorm), AasS(D411A)", "setting": "AasS(D411A); Dose 3.05176e-10", "result": 2.739}, {"measurement": "Average (DeltaFNorm), AasS(D411A)", "setting": "AasS(D411A); Dose 6.10352e-10", "result": 3.15}, {"measurement": "Average (DeltaFNorm), AasS(D411A)", "setting": "AasS(D411A); Dose 1.2207e-9", "result": 3.03}, {"measurement": "Average (DeltaFNorm), AasS(D411A)", "setting": "AasS(D411A); Dose 2.44141e-9", "result": -1.436}, {"measurement": "Average (DeltaFNorm), AasS(D411A)", "setting": "AasS(D411A); Dose 4.88281e-9", "result": 1.165}, {"measurement": "Average (DeltaFNorm), AasS(D411A)", "setting": "AasS(D411A); Dose 9.76563e-9", "result": 0.1826}, {"measurement": "Average (DeltaFNorm), AasS(D411A)", "setting": "AasS(D411A); Dose 1.95313e-8", "result": -0.6893}, {"measurement": "Average (DeltaFNorm), AasS(D411A)", "setting": "AasS(D411A); Dose 3.90625e-8", "result": 2.194}, {"measurement": "Average (DeltaFNorm), AasS(D411A)", "setting": "AasS(D411A); Dose 7.8125e-8", "result": -2.669}, {"measurement": "Average (DeltaFNorm), AasS(D411A)", "setting": "AasS(D411A); Dose 1.5625e-7", "result": -0.9022}, {"measurement": "Average (DeltaFNorm), AasS(D411A)", "setting": "AasS(D411A); Dose 3.125e-7", "result": -3.911}, {"measurement": "Average (DeltaFNorm), AasS(D411A)", "setting": "AasS(D411A); Dose 1.25e-6", "result": -3.293}, {"measurement": "Average (DeltaFNorm), AasS(D411A)", "setting": "AasS(D411A); Dose 2.5e-6", "result": -1.334}, {"measurement": "Average (DeltaFNorm), AasS(D411A)", "setting": "AasS(D411A); Dose 5e-6", "result": -2.2407}, {"measurement": "stoichiometry (n)", "setting": "AasS", "result": "0.97±0.16"}, {"measurement": "Kd", "setting": "AasS; ligand 600 μM in syringe, room temperature, read-out: dissociation constant (Kd)", "result": "14.1 ± 3.82", "unit": "nM"}]}
